Measured values: patent US8445536B2, “Arginine-containing compositions and methods for increasing blood flow using same” (Ajinomoto Co., Inc., priority 2005, dated 2013)
Where two headings read alike, the source gives them in different places.

What was measured:
[1] = Test Example 3: concentration of free arginine in the blood plasma on intravenous arginine; type: in vivo, rats; settings: for concentration at 10 min / concentration at 20 min / concentration at 30 min / concentration at 40 min: Sprague-Dawley, rat, plasma, iv
Text: (c) Rats were anesthetized by pentobarbital. […] (b) Administration: […]

human beings = human beings of average weight 78 kg, cited from earlier work
male SD rats [2] = assay: Test Example 2: variation of blood pressure; settings: 50 or 150 mg of arginine per 1 kg body weight, iv over 30 min
male SD rats [3] = assay: Test Example 4: blood pressure when administering arginine and glutamine to rats; settings: 50 mg arginine/kg over 30 min; 20 to 30 min after injection; average of 3 rats
male SD rats [4] = assay: Test Example 5: amounts of Evans' Blue delivered to various organs after arginine
Protocol: (b) Operation: A catheter was inserted into the jugular vein of rats under anesthesia. Then, a blood sample was collected from the catheter.
After sufficient time, the rats were euthanasized, and the muscles, digestive tracts, liver, kidneys, spleen, heart, brain, adipose tissues, and abdominal skin were extracted. Then, Evans' Blue was released by immersing each organ in a formalin solution, and the amount of Evans' Blue in each organ was calculated from the absorbance obtained by the spectrophotometer.

male SD rats [5] = assay: Test Example 2: blood flow in the capillaries of various organs, microsphere method
Protocol: (b) Operation: Catheters were inserted into the carotid artery, jugular vein, and femoral artery of rats under anesthesia.
After taking enough time from the second administration of the microsphere, the rats were euthanasized, and the muscles, digestive tracts, liver, kidneys, spleen, heart, brain, adipose tissues, and abdominal skin were extracted. Then, the microspheres contained in each organ were collected and the rate of change in blood flow was calculated for each organ from the amount of the microspheres.

male SD rats [6] = assay: Test Example 1: blood pressure when administering arginine to rats (arterial catheter); settings: 500 mg of arginine per 1 kg body weight, iv over 30 min
male SD rats [7] = assay: Test Example 1: blood flow at the skin of the lower thighs, laser Doppler blood-flowmeter; settings: for Maximum increasing rate of blood flow (Before administration: 100%): skin of lower thighs
[8] = 50 mg of arginine per 1 kg body weight
[9] = 150 mg of arginine per 1 kg body weight

Q: Which “rise of the concentration of free arginine in the blood plasma at maximum” value [1, 8] does the source give for `N=C(N)NCCC[C@H](N)C(=O)O` [arginine] here?
A: The value was 46.1 micrograms per 1 mL.

Q: What about the “rise of the concentration of free arginine in the blood plasma at maximum” value [1, 9] of the same molecule?
A: The value was 177.5 micrograms per 1 mL.

Q: What about the concentration at 10 min ([1]; 50 mg/kg) of the same molecule?
A: The concentration at 10 min was 43.6 µg/mL.

Q: What about the concentration at 20 min ([1]; 50 mg/kg) of the same molecule?
A: The concentration at 20 min was 46.1 µg/mL.

Q: What about the concentration at 30 min ([1]; 50 mg/kg) of the same molecule?
A: Its concentration at 30 min is 38.8 µg/mL.

Q: And the concentration at 40 min ([1]; 50 mg/kg)?
A: Its concentration at 40 min is 15.7 µg/mL.

Q: And the concentration at 10 min ([1]; 150 mg/kg)?
A: The concentration at 10 min was 156 µg/mL.

Q: And the concentration at 20 min ([1]; 150 mg/kg)?
A: The concentration at 20 min was 115 µg/mL.

Q: And the concentration at 30 min ([1]; 150 mg/kg)?
A: The concentration at 30 min was 178 µg/mL.

Q: What about the concentration at 40 min ([1]; 150 mg/kg) of the same molecule?
A: Its concentration at 40 min is 77.2 µg/mL.

Q: And the vascular resistance (human beings; 6 g arginine parenterally)?
A: The vascular resistance was “did not cause either effect”.

Q: What about the vascular resistance (human beings; 30 g arginine parenterally) of the same molecule?
A: Its vascular resistance is “lowered”.

Q: What about the “variation of blood pressure” value (male SD rats [2]) of the same molecule?
A: The value was ≤ 10 mmHg.

Q: What about the “Maximum variation of blood pressure” value (male SD rats [3]) of the same molecule?
A: The value was “+11.4 mmHg”.

Q: And the “delivered amounts of Evans' Blue to the organs (tendency)” value (male SD rats [4]; 50 or 150 mg of arginine per 1 kg, muscles, digestive tract, liver, kidneys, spleen, brain, adipose tissues, skin)?
A: The value was “increased”.

Q: And the “Changes in the amounts of Evans' Blue after administering arginine (before administration 100%)” value (male SD rats [4]; Abdominal skin, 150 mg/kg of BW)?
A: Its value is 207%.

Q: What about the “Changes in the amounts of Evans' Blue after administering arginine (before administration 100%)” value (male SD rats [4]; Adipose tissues, 50 mg/kg of BW) of the same molecule?
A: Its value is 430%.

Q: And the “Changes in the amounts of Evans' Blue after administering arginine (before administration 100%)” value (male SD rats [4]; Adipose tissues, 150 mg/kg of BW)?
A: Its value is 160%.

Q: And the “Changes in the amounts of Evans' Blue after administering arginine (before administration 100%)” value (male SD rats [4]; Back skin, 50 mg/kg of BW)?
A: Its value is 315%.

Q: And the “Changes in the amounts of Evans' Blue after administering arginine (before administration 100%)” value (male SD rats [4]; Back skin, 150 mg/kg of BW)?
A: The value was 331%.

Q: What about the “Changes in the amounts of Evans' Blue after administering arginine (before administration 100%)” value (male SD rats [4]; Brain, 50 mg/kg of BW) of the same molecule?
A: The value was 169%.

Q: What about the “Changes in the amounts of Evans' Blue after administering arginine (before administration 100%)” value (male SD rats [4]; Duodenum, 50 mg/kg of BW) of the same molecule?
A: The value was 143%.

Q: What about the “Changes in the amounts of Evans' Blue after administering arginine (before administration 100%)” value (male SD rats [4]; Duodenum, 150 mg/kg of BW) of the same molecule?
A: The value was 85%.

Q: What about the “Changes in the amounts of Evans' Blue after administering arginine (before administration 100%)” value (male SD rats [4]; Gastrocnemius muscle, 50 mg/kg of BW) of the same molecule?
A: Its value is 219%.

Q: What about the “Changes in the amounts of Evans' Blue after administering arginine (before administration 100%)” value (male SD rats [4]; Gastrocnemius muscle, 150 mg/kg of BW) of the same molecule?
A: Its value is 154%.

Q: And the “Changes in the amounts of Evans' Blue after administering arginine (before administration 100%)” value (male SD rats [4]; Heart, 50 mg/kg of BW)?
A: Its value is 87%.

Q: And the “Changes in the amounts of Evans' Blue after administering arginine (before administration 100%)” value (male SD rats [4]; Heart, 150 mg/kg of BW)?
A: The value was 85%.

Q: What about the “Changes in the amounts of Evans' Blue after administering arginine (before administration 100%)” value (male SD rats [4]; Kidneys, 50 mg/kg of BW) of the same molecule?
A: Its value is 161%.

Q: And the “Changes in the amounts of Evans' Blue after administering arginine (before administration 100%)” value (male SD rats [4]; Liver, 50 mg/kg of BW)?
A: Its value is 181%.

Q: What about the “Changes in the amounts of Evans' Blue after administering arginine (before administration 100%)” value (male SD rats [4]; Liver, 150 mg/kg of BW) of the same molecule?
A: Its value is 173%.

Q: And the “Changes in the amounts of Evans' Blue after administering arginine (before administration 100%)” value (male SD rats [4]; Spleen, 50 mg/kg of BW)?
A: The value was 101%.

Q: What about the “Changes in the amounts of Evans' Blue after administering arginine (before administration 100%)” value (male SD rats [4]; Spleen, 150 mg/kg of BW) of the same molecule?
A: Its value is 92%.

Q: And the “blood flow in the capillaries of the muscles and the brain” value (male SD rats [5]; [8])?
A: Its value is “significantly increased”.

Q: What about the “blood flow in the capillaries, all organs measured” value (male SD rats [5]; [9]) of the same molecule?
A: The value was “increased for all organs measured”.

Q: What about the “Changes in blood flow after the administration of arginine (before administration 100%)” value (male SD rats [5]; Abdominal skin, 50 mg/kg of body weight) of the same molecule?
A: The value was 117%.

Q: What about the “Changes in blood flow after the administration of arginine (before administration 100%)” value (male SD rats [5]; Abdominal skin, 150 mg/kg of body weight) of the same molecule?
A: The value was 134%.

Q: What about the “Changes in blood flow after the administration of arginine (before administration 100%)” value (male SD rats [5]; Adipose tissues, 50 mg/kg of body weight) of the same molecule?
A: Its value is 99%.

Q: What about the “Changes in blood flow after the administration of arginine (before administration 100%)” value (male SD rats [5]; Adipose tissues, 150 mg/kg of body weight) of the same molecule?
A: Its value is 116%.

Q: And the “Changes in blood flow after the administration of arginine (before administration 100%)” value (male SD rats [5]; Back skin, 50 mg/kg of body weight)?
A: The value was 107%.

Q: And the “Changes in blood flow after the administration of arginine (before administration 100%)” value (male SD rats [5]; Back skin, 150 mg/kg of body weight)?
A: The value was 118%.

Q: What about the “Changes in blood flow after the administration of arginine (before administration 100%)” value (male SD rats [5]; Brain, 50 mg/kg of body weight) of the same molecule?
A: Its value is 126%.

Q: What about the “Changes in blood flow after the administration of arginine (before administration 100%)” value (male SD rats [5]; Brain, 150 mg/kg of body weight) of the same molecule?
A: Its value is 137%.

Q: What about the “Changes in blood flow after the administration of arginine (before administration 100%)” value (male SD rats [5]; Duodenum, 50 mg/kg of body weight) of the same molecule?
A: Its value is 123%.

Q: What about the “Changes in blood flow after the administration of arginine (before administration 100%)” value (male SD rats [5]; Duodenum, 150 mg/kg of body weight) of the same molecule?
A: The value was 142%.

Q: And the “Changes in blood flow after the administration of arginine (before administration 100%)” value (male SD rats [5]; Heart, 50 mg/kg of body weight)?
A: Its value is 126%.

Q: And the “Changes in blood flow after the administration of arginine (before administration 100%)” value (male SD rats [5]; Heart, 150 mg/kg of body weight)?
A: Its value is 140%.

Q: What about the “Changes in blood flow after the administration of arginine (before administration 100%)” value (male SD rats [5]; Kidneys, 50 mg/kg of body weight) of the same molecule?
A: The value was 86%.

Q: What about the “Changes in blood flow after the administration of arginine (before administration 100%)” value (male SD rats [5]; Kidneys, 150 mg/kg of body weight) of the same molecule?
A: The value was 91%.

Q: And the “Changes in blood flow after the administration of arginine (before administration 100%)” value (male SD rats [5]; Liver, 50 mg/kg of body weight)?
A: Its value is 92%.

Q: What about the “Changes in blood flow after the administration of arginine (before administration 100%)” value (male SD rats [5]; Liver, 150 mg/kg of body weight) of the same molecule?
A: The value was 101%.

Q: And the “Changes in blood flow after the administration of arginine (before administration 100%)” value (male SD rats [5]; Muscles, 50 mg/kg of body weight)?
A: Its value is 164%.

Q: And the “Changes in blood flow after the administration of arginine (before administration 100%)” value (male SD rats [5]; Muscles, 150 mg/kg of body weight)?
A: Its value is 157%.

Q: And the “Changes in blood flow after the administration of arginine (before administration 100%)” value (male SD rats [5]; Spleen, 50 mg/kg of body weight)?
A: Its value is 104%.

Q: What about the “Changes in blood flow after the administration of arginine (before administration 100%)” value (male SD rats [5]; Spleen, 150 mg/kg of body weight) of the same molecule?
A: Its value is 115%.

Q: And the “death due to rapid reduction of blood pressure” value (male SD rats [6])?
A: Its value is “Two out of three rats died”.

Q: And the “Maximum increasing rate of blood flow (Before administration: 100%)” value (male SD rats [7]; 50 mg arginine/kg iv over 30 min, 20 to 30 min after injection)?
A: The value was “+43.9%”.

Q: What about the “Maximum increasing rate of blood flow (Before administration: 100%)” value (male SD rats [7]; 150 mg arginine/kg iv over 30 min, 20 to 30 min after injection) of the same molecule?
A: Its value is “+29.3%”.

Q: What about the “Maximum increasing rate of blood flow (Before administration: 100%)” value (male SD rats [7]; 500 mg arginine/kg iv over 30 min, 50 to 60 min after injection) of the same molecule?
A: The value was “+85.0%”.

Q: What about the “amount of blood flowing to the skin of the lower thighs” value (male SD rats [7]; all rats given 50 mg or more of arginine per 1 kg body weight) of the same molecule?
A: The value was “increased”.
